Laboratory results published in patent US9988373B2, “Nitrogen-containing six-membered cyclic derivatives and pharmaceutical composition comprising the same” (SHIONOGI & CO., LTD., priority 2013, dated 2018).

Each molecule was assayed against T1, human P2X7 receptor (Homo sapiens, UniProt Q99572, R270H) (assay: Evaluation of a human P2X7 receptor inhibitory activity (Yo-Pro uptake, BzATP stimulation, FLIPR TETRA)). Conditions: antagonistic activity for the human P2X7 receptor, 1321N1 cell transfected with the human P2X7 receptor gene, Yo-Pro fluorescence.
T1 construct: expressed in transfected cells
T1 sequence (Q99572 1-595 R270H): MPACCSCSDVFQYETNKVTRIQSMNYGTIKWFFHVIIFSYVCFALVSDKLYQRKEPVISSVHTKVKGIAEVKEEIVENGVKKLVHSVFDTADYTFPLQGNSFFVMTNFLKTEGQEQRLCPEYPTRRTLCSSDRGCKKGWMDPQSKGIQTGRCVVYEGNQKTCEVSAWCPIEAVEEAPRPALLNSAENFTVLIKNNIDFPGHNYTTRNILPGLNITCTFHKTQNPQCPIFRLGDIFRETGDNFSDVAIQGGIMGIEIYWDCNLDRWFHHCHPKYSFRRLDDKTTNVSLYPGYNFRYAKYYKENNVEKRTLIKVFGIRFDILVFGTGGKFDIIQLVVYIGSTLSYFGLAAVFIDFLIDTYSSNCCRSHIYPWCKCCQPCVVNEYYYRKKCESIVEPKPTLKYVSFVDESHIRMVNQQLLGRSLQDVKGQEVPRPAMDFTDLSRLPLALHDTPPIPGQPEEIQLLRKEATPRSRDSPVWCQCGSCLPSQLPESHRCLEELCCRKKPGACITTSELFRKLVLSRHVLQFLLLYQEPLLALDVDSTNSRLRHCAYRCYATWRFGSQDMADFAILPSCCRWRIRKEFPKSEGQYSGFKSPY
Format: cell-based
Description: Test Example 1 Evaluation of a Human P2X7 Receptor Inhibitory Activity
Stably expressing cell line (1321N1 cell transfected with the human P2X7 receptor gene (GenBank accession number NM_002562.5 including T606C and G952A SNP)) was used. The cells were seeded in a 384-well microtiter plate at a concentration of 8000 cells/well and cultured in the medium (10% fetal bovine serum, 25 mM HEPES, 1% penicillin and streptomycin in DMEM) for one day at 37° C. under 5% carbon dioxide atmosphere. After replacing with 20 μL of the HBSS buffer (20 mM HEPES. 55.6 mM D-glucose, 1×HBSS(−), pH 7.4-7.5), 15 μL of 17.3 μM Yo-Pro solution in the HBSS buffer was added. The plate was placed in high-throughput cellular screening system FLIPR TETRA (Molecullar Devices, LLC.) and 15 μL of 130 μM BzATP solution in the HBSS buffer was added. Measurement of fluorescence intensity by FLIPR TETRA was started. After eight minutes, 15 μL of DMSO solutions containing different concentrations of the compound of the present invention as prepared by dilution with the HBSS buffer were dispensed to each well through the built-in automatic dispenser, and the measurement of fluorescence intensity was continued for 20 minutes. The maximum fluorescence intensity without the compound of the present invention is calculated as 0% inhibition and the maximum fluorescence intensity when the reference compound was added is calculated as 100% inhibition. Changing values of fluorescence intensity by the compound of the present invention were calculated by difference between maximum and minimum fluorescence intensity for 20 minutes. Inhibition ratios (%) were calculated from the following equation:
[formula] IC50 was calculated using logistic approximation.

| IC50 | Structure (SMILES) |
| --- | --- |
| 0.61 µM | O=c1ccn(CC2CCCCC2)c(-c2cccc(C(F)(F)F)c2Cl)n1 [II-077] |
| 0.11 µM | O=c1ccn(Cc2cccc3ccsc23)c(-c2cccc(C(F)(F)F)c2Cl)c1 [Compound I-048] |
| 0.067 µM | O=c1cc(-c2cccc(C(F)(F)F)c2Cl)n(Cc2ccccc2F)cc1Br [Compound I-001] |

Same assay, conditions: antagonistic activity for the human P2X7 receptor, 1321N1 cell transfected with the human P2X7 receptor gene, Yo-Pro fluorescence, class symbols

| IC50 | Structure (SMILES) |
| --- | --- |
| 0.1 to 0.5 µM | O=c1ccn(Cc2ccccc2OCc2ccccc2)c(-c2cccc(C(F)(F)F)c2Cl)c1 [Compound I-049] |
| 0.5 to 1 µM | COc1cn(Cc2ccccc2)c(-c2cccc(Cl)c2C)nc1=O [II-081] |
| 0.1 to 0.5 µM | N#Cc1cccc(Cn2cc(Br)c(=O)cc2-c2cccc(C(F)(F)F)c2Cl)c1 [Compound I-003] |
| 0.1 to 0.5 µM | O=c1ccn(Cc2cccc3c2OCCCO3)c(-c2cccc(C(F)(F)F)c2Cl)c1 [Compound I-046] |
| 1 to 10 µM | COc1cn(Cc2ccccc2)c(-c2cc(Cl)ccc2Cl)nc1=O [II-101] |
| < 0.05 µM | COc1ccccc1Cn1cc(F)c(=O)nc1-c1cccc(C(F)(F)F)c1Cl [II-093] |
| 0.5 to 1 µM | O=C(c1ccccc1)c1cccc(Cn2ccc(=O)cc2-c2cccc(C(F)(F)F)c2Cl)c1 [Compound I-069] |
| 0.5 to 1 µM | O=c1ccn(Cc2cccnc2)c(-c2cccc(C(F)(F)F)c2Cl)c1 [Compound I-053] |
| 1 to 10 µM | O=c1ccn(CCc2ccccc2)c(-c2cccc(C(F)(F)F)c2Cl)n1 [II-076] |
| 1 to 10 µM | O=c1ccn(Cc2cccc(-c3cccs3)c2)c(-c2cccc(C(F)(F)F)c2Cl)c1 [Compound I-047] |
| 0.05 to 0.1 µM | COc1cn(Cc2ccc(F)cc2C)c(-c2cccc(C(F)(F)F)c2Cl)nc1=O [II-007] |
| 0.1 to 0.5 µM | O=c1ccn(Cc2ccccc2)c(-c2cccc(C(F)(F)F)c2Cl)c1 [Compound I-019] |
| 0.5 to 1 µM | COc1cccc(Cn2ccc(=O)cc2-c2cccc(C(F)(F)F)c2Cl)n1 [Compound I-032] |
| 1 to 10 µM | O=c1ccn(Cc2nc(C(F)(F)F)cs2)c(-c2cccc(C(F)(F)F)c2Cl)c1 [Compound I-066] |
| 0.5 to 1 µM | N#Cc1ccccc1Cn1ccc(=O)cc1-c1cccc(C(F)(F)F)c1Cl [Compound I-023] |
| 0.5 to 1 µM | N#Cc1cccc(Cn2cc(N3CCCC3)c(=O)cc2-c2cccc(C(F)(F)F)c2Cl)c1 [Compound I-004] |
| 0.05 to 0.1 µM | CC(C)(C)OC(=O)Nc1cn(Cc2ccccc2)c(-c2cccc(C(F)(F)F)c2Cl)nc1=O [II-042] |
| 0.5 to 1 µM | O=c1ccn(Cc2ccccn2)c(-c2cccc(C(F)(F)F)c2Cl)c1 [Compound I-058] |
| 0.1 to 0.5 µM | CS(=O)(=O)Nc1cn(Cc2ccccc2)c(-c2cccc(C(F)(F)F)c2Cl)nc1=O [II-047] |
| 0.5 to 1 µM | COc1cn(Cc2ccccc2C)c(-c2ccccc2Cl)nc1=O [II-074] |
| 0.5 to 1 µM | O=c1ccn(Cc2ccccc2)c(-c2cccc(Cl)c2Cl)c1 [Compound I-021] |
| 1 to 10 µM | COc1ccc(Cn2ccc(=O)cc2-c2cccc(C(F)(F)F)c2Cl)cc1 [Compound I-040] |

| IC50 | Structure (SMILES) |
| --- | --- |
| < 0.05 µM | COc1ccccc1Cn1cc(C#N)c(=O)nc1-c1cccc(C(F)(F)F)c1Cl [II-092] |
| 0.05 to 0.1 µM | CC(=O)COc1cn(Cc2ccccc2)c(-c2cccc(C(F)(F)F)c2Cl)nc1=O [II-034] |
| 0.1 to 0.5 µM | COc1cn(Cc2cccc(C#N)c2)c(-c2cccc(C(F)(F)F)c2Cl)cc1=O [Compound I-007] |
| 1 to 10 µM | O=c1ccn(Cc2ccc(C(F)(F)F)cc2)c(-c2cccc(C(F)(F)F)c2Cl)c1 [Compound I-052] |
| 0.5 to 1 µM | COc1cn(Cc2ccccc2)c(-c2ccc(C(F)(F)F)cc2Cl)nc1=O [II-088] |
| < 0.05 µM | COc1cn(Cc2ccccc2C)c(-c2cccc(C(F)(F)F)c2Cl)nc1=O [II-001] |
| 0.5 to 1 µM | COc1cn(Cc2ccccc2C)c(-c2ccccc2C(F)(F)F)nc1=O [II-064] |
| 0.1 to 0.5 µM | O=c1ccn(Cc2ccccc2Cl)c(-c2cccc(C(F)(F)F)c2Cl)c1 [Compound I-059] |
| 0.1 to 0.5 µM | O=c1nc(-c2cccc(C(F)(F)F)c2Cl)n(Cc2ccccc2)cc1OC(F)F [II-035] |
| < 0.05 µM | Cc1ccccc1Cn1cc(F)c(=O)nc1-c1cccc(C(F)(F)F)c1Cl [II-011] |
| 1 to 10 µM | O=c1ccn(Cc2cccc(OC(F)(F)F)c2)c(-c2cccc(C(F)(F)F)c2Cl)c1 [Compound I-031] |
| < 0.05 µM | N#CCOc1cn(Cc2ccccc2)c(-c2cccc(C(F)(F)F)c2Cl)nc1=O [II-022] |
| 1 to 10 µM | O=c1ccn(Cc2cccc(C(F)(F)F)c2)c(-c2cccc(C(F)(F)F)c2Cl)c1 [Compound I-050] |
| 1 to 10 µM | O=c1ccn(Cc2cccc(-c3ccccc3)c2)c(-c2cccc(C(F)(F)F)c2Cl)c1 [Compound I-061] |
| 1 to 10 µM | O=c1ccn(Cc2ccccc2-c2cccs2)c(-c2cccc(C(F)(F)F)c2Cl)c1 [Compound I-045] |
| 1 to 10 µM | N#Cc1ccc(Cn2ccc(=O)cc2-c2cccc(C(F)(F)F)c2Cl)cc1 [Compound I-025] |
| 0.1 to 0.5 µM | CNc1cn(Cc2ccccc2)c(-c2cccc(C(F)(F)F)c2Cl)nc1=O [II-044] |
| 1 to 10 µM | NC(=O)c1ccc(Cn2ccc(=O)cc2-c2cccc(C(F)(F)F)c2Cl)cc1 [Compound I-063] |
| 0.1 to 0.5 µM | O=c1ccn(Cc2ccccc2C(F)(F)F)c(-c2cccc(C(F)(F)F)c2Cl)c1 [Compound I-033] |
| 1 to 10 µM | COc1cn(Cc2ccccc2)c(-c2cnn(Cc3ccccc3)c2)nc1=O [II-070] |
| 1 to 10 µM | COc1cn(Cc2ccccc2C)c(-c2cccc3ncccc23)nc1=O [II-002] |
